Source: patent US4866040A, “Aminocarnitine directed pharmaceutical agents” (priority 1987, dated 1989)
Square brackets hold non-standard residues; d marks the D form. Peptide text beside a SMILES is read from it. Cya = N[CH](CS(=O)(=O)O)C(=O)O

Legend:
[1] = system: platelet Ca-activated protease; experiment: inhibition of platelet Ca-activated protease; type: biochemical; details: final in-vitro conc. 1 mM
From the text: The following results were obtained for inhibition of platelet Ca-activated protease: […]

[2] = in vivo, po; cited from earlier work
[3] = system: Ca-activated protease; experiment: in vitro inhibition of Ca-activated protease; type: biochemical; details: for % of Control (Ca-activated protease activity): in vitro, 100 ug; for % of Control (Ca-activated protease activity) after hydrolysis: 100ug, hydrolysis at 60° C., pH 2
From the text: It has been shown that in vitro carnitylleucylargininal inhibits Ca-activated protease as well as leupeptin, viz.

[4] = active transport; cited from earlier work
[5] = system: muscle Ca-activated protease; experiment: in-vivo administration, inhibition of muscle Ca-activated protease; parameters: species or system rats; details: for % Inhibition of muscle Ca-activated protease: 2 hours post IP injection

Compound	% Inhibition of platelet Ca-activated protease [1] [%]	% of Control (Ca-activated protease activity) [3] [%]	other results
N[C@@H](CS(=O)(=O)O)C(=O)O [Cysteic acid (CDI treated), cysteic acid]	0		
C[N+](C)(C)C[C@H](N)CC(=O)[O-] [aminocarnitine]			toxicity when fed orally [2]: non-toxic
C[N+](C)(C)CC(O)CC(=O)[O-] (stereo not shown) [carnitine]		84	concentration in cardiac and skeletal muscle relative to plasma [4]: 50-100 times
CC(C)CC(NC(=O)C(N)CS(=O)(=O)O)C(=O)NC(C=O)CCCNC(=N)N (stereo not drawn) [cysteicleucylargininal] (H-[Cya]-Leu-Arg-aldehyde; configuration not given here)	98		
CC(C)C[C@H](N)C(=O)N[C@H](C=O)CCCNC(=N)N [leucylargininal, leucyl argininal]	94		
CC(=O)N[C@@H](CC(C)C)C(=O)N[C@@H](CC(C)C)C(=O)N[C@H](C=O)CCCNC(=N)N [leupeptin]	98	7.9	% Inhibition of muscle Ca-activated protease ([5]; 74 umoles): 20%
E-aminoadipic acid [E-aminoadipic acid (CDI treated)]	0		
carnitylleucylargininal		4.6	% Inhibition of muscle Ca-activated protease ([5]; 19 umoles): 48%; effectiveness per umole relative to leupeptin in inhibiting Ca-activated protease in skeletal muscle ([5]; injected into rats): about ten times more effective per umole
carnitylleucylargininal dibutylacetal			% of Control (Ca-activated protease activity) after hydrolysis ([3]; 0 time): 17%; % of Control (Ca-activated protease activity) after hydrolysis ([3]; 3 hours): 1.2%; % of Control (Ca-activated protease activity) after hydrolysis ([3]; 24 hours): 100%
